{"source": "patent US20240285571A1", "about": "“METHODS OF TREATING BONE INFECTIONS” (MICROBION CORPORATION, priority 2020, published 2024)", "format_in_all_cases": "cell-based", "key": {"[1]": {"system": "Escherichia coli", "assay": "Broth microdilution MIC (Example 6)", "settings": "Escherichia coli, read-out: MIC", "procedure": "(§1) Test Compounds: The test agents BisEDT (MB-1-B3; Lot No. ED268-1-11-01), MB-2B, and MB-6 were stored at room temperature, in the dark, until assayed.\n(§2) For testing daptomycin, calcium was supplemented with […] Ca^2+, resulting in a final concentration of […] Ca^2+ (2, 3).\n(§3) MIC Assay Procedure: MIC values were determined using a broth microdilution procedure described by CLSI (2, 3).\n(§4) The Biomek 2000 was then used to make 2-fold serial dilutions in the mother plates from column 1 through column 11. The wells of column 12 contained no drug and served as the organism growth control wells for the assay.\n(§5) The test panels were prepared on the Biomek FX instrument which transferred 2 μL of drug solution from each well of a mother plate to the corresponding well of each daughter plate in a single step.\n(§6) A standardized inoculum of each test organism was prepared per CLSI methods to equal a 0.5 McFarland standard, followed by a dilution of 1:20. The plates were then inoculated with 10 μL of the diluted inoculum using the Biomek 2000 from low to high drug concentration resulting in a final concentration of approximately 5×10^5 CFU/mL.\n(§7) Plates were stacked 3-4 high, covered with a lid on the top plate, placed into plastic bags, and incubated at 35° C. for 16 to 20 hr (vancomycin was read for S. aureus after 24 hr incubation time). The MIC was recorded as the lowest concentration of drug that inhibited visible growth of the organism."}, "[2]": {"system": "Klebsiella pneumoniae", "assay": "Broth microdilution MIC (Example 6)", "settings": "Klebsiella pneumoniae, read-out: MIC", "procedure": "as §1, §2, §3, §4, §5, §6, §7"}, "[3]": {"system": "Pseudomonas aeruginosa", "assay": "Broth microdilution MIC (Example 6)", "settings": "Pseudomonas aeruginosa, read-out: MIC", "procedure": "as §1, §2, §3, §4, §5, §6, §7"}, "[4]": {"system": "Acinetobacter baumannii", "assay": "Broth microdilution MIC (Example 6)", "settings": "Acinetobacter baumannii", "method_in_brief": "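CLSI broth microdilution in cation-adjusted Mueller Hinton broth, test agents 0.06-64 μg/mL from DMSO stocks, inoculum approx. 5×10^5 CFU/mL. Incubation 35° C for 16–20 hr; MIC taken as lowest concentration inhibiting visible growth.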"}, "[5]": {"system": "relevant ATCC QC organisms", "assay": "Broth microdilution MIC, QC (Example 6)", "settings": "read-out: MIC", "method_in_brief": "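QC strains were tested per CLSI broth microdilution in cation-adjusted Mueller Hinton broth, with Ca2+ supplemented for daptomycin, at about 5×10^5 CFU/mL. Incubation was at 35° C for 16–20 hr, or 24 hr for vancomycin against S. aureus. The MIC was the lowest concentration inhibiting visible growth.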"}, "[6]": {"settings": "ATCC35218, E. coli ATCC 35218, ESBL"}, "[7]": {"settings": "K. pneumoniae CDC 135, ESBL/VIM"}, "[8]": {"settings": "P. aeruginosa isolate CDC 241, β-lactamase type IMP/OXA"}}, "note": "Read-outs that look alike come from different tables or passages of the source."}
{"smiles": "CC(C)(O/N=C(\\C(=O)N[C@@H]1C(=O)N2C(C(=O)[O-])=C(C[n+]3ccccc3)CS[C@H]12)c1csc(N)n1)C(=O)O", "note": "[Ceftazidime]", "values": [{"measurement": "MIC", "setting": "[1]; [6]", "result": 0.12, "unit": "µg/mL"}, {"measurement": "MIC", "setting": "[1]; ATCCBAA2471, E. coli ATCC BAA-2471, NDM", "result": "> 64", "unit": "µg/mL"}, {"measurement": "MIC", "setting": "[1]; E. coli CDC 114, ESBL/KPC", "result": "> 64", "unit": "µg/mL"}, {"measurement": "MIC", "setting": "[1]; E. coli CDC 118, ESBL/NDM", "result": "> 64", "unit": "µg/mL"}, {"measurement": "MIC", "setting": "[1]; E. coli CDC 435, NDM", "result": "> 64", "unit": "µg/mL"}, {"measurement": "MIC", "setting": "[1]; E. coli CDC 451, KPC", "result": 64, "unit": "µg/mL"}, {"measurement": "MIC", "setting": "[1]; E. coli CDC 503, ESBL/NDM", "result": "> 64", "unit": "µg/mL"}, {"measurement": "MIC", "setting": "[1]; E. coli MMX 5745, KPC", "result": 32, "unit": "µg/mL"}, {"measurement": "MIC", "setting": "[1]; E. coli MMX 5755, ESBL", "result": "> 64", "unit": "µg/mL"}, {"measurement": "MIC", "setting": "[1]; E. coli MMX 5756, ESBL", "result": "> 64", "unit": "µg/mL"}, {"measurement": "MIC", "setting": "[1]; E. coli MMX 5758, ESBL", "result": 16, "unit": "µg/mL"}, {"measurement": "MIC", "setting": "[2]; ATCCBAA1705, K. pneumoniae ATCC BAA-1705, ESBL/KPC", "result": "> 64", "unit": "µg/mL"}, {"measurement": "MIC", "setting": "[2]; K. pneumoniae CDC 112, KPC", "result": "> 64", "unit": "µg/mL"}, {"measurement": "MIC", "setting": "[2]; K. pneumoniae CDC 113, ESBL/KPC", "result": "> 64", "unit": "µg/mL"}, {"measurement": "MIC", "setting": "[2]; K. pneumoniae CDC 115, ESBL/KPC", "result": "> 64", "unit": "µg/mL"}, {"measurement": "MIC", "setting": "[2]; K. pneumoniae CDC 120, ESBL/KPC", "result": "> 64", "unit": "µg/mL"}, {"measurement": "MIC", "setting": "[2]; K. pneumoniae CDC 126, ESBL/KPC", "result": 4, "unit": "µg/mL"}, {"measurement": "MIC", "setting": "[2]; K. pneumoniae CDC 129, ESBL/KPC", "result": "> 64", "unit": "µg/mL"}, {"measurement": "MIC", "setting": "[2]; [7]", "result": "> 64", "unit": "µg/mL"}, {"measurement": "MIC", "setting": "[2]; K. pneumoniae CDC 138, ESBL/NDM", "result": "> 64", "unit": "µg/mL"}, {"measurement": "MIC", "setting": "[2]; K. pneumoniae CDC 158, ESBL/NDM/OXA", "result": "> 64", "unit": "µg/mL"}, {"measurement": "MIC", "setting": "[2]; K. pneumoniae MMX 9029, ESBL", "result": 4, "unit": "µg/mL"}, {"measurement": "MIC", "setting": "[3]; P. aeruginosa isolate CDC 230, β-lactamase type VIM/OXA", "result": 64, "unit": "µg/mL"}, {"measurement": "MIC", "setting": "[3]; P. aeruginosa isolate CDC 231, β-lactamase type KPC/OXA", "result": "> 64", "unit": "µg/mL"}, {"measurement": "MIC", "setting": "[3]; [8]", "result": "> 64", "unit": "µg/mL"}, {"measurement": "MIC", "setting": "[3]; P. aeruginosa isolate CDC 246, β-lactamase type NDM/OXA", "result": "> 64", "unit": "µg/mL"}, {"measurement": "MIC", "setting": "[3]; P. aeruginosa isolate CDC 250, β-lactamase type NDM/OXA", "result": "> 64", "unit": "µg/mL"}, {"measurement": "MIC", "setting": "[3]; P. aeruginosa isolate CDC 356, β-lactamase type KPC", "result": 64, "unit": "µg/mL"}, {"measurement": "MIC", "setting": "[3]; P. aeruginosa isolate CDC 439, β-lactamase type IMP", "result": "> 64", "unit": "µg/mL"}, {"measurement": "MIC", "setting": "[3]; P. aeruginosa isolate CDC 444, β-lactamase type VIM", "result": 32, "unit": "µg/mL"}, {"measurement": "MIC", "setting": "[3]; P. aeruginosa isolate CDC 457, β-lactamase type VIM", "result": "> 64", "unit": "µg/mL"}, {"measurement": "MIC", "setting": "[3]; P. aeruginosa isolate CDC 516, β-lactamase type KPC/AmpC", "result": 64, "unit": "µg/mL"}, {"measurement": "MIC", "setting": "[3]; P. aeruginosa isolate CDC 518, β-lactamase type KPC/AmpC", "result": 32, "unit": "µg/mL"}, {"measurement": "MIC", "setting": "[4]; A. baumannii isolate CDC 273, β-lactamase type ESBL/OXA, read-out: MIC", "result": 64, "unit": "µg/mL"}, {"measurement": "MIC", "setting": "[4]; A. baumannii isolate CDC 274, β-lactamase type ESBL/OXA, read-out: MIC", "result": "> 64", "unit": "µg/mL"}, {"measurement": "MIC", "setting": "[4]; A. baumannii isolate CDC 275, β-lactamase type ESBL/OXA, read-out: MIC", "result": "> 64", "unit": "µg/mL"}, {"measurement": "MIC", "setting": "[4]; A. baumannii isolate CDC 277, β-lactamase type ESBL/OXA, read-out: MIC", "result": "> 64", "unit": "µg/mL"}, {"measurement": "MIC", "setting": "[4]; A. baumannii isolate CDC 284, β-lactamase type ESBL/OXA, read-out: MIC", "result": 64, "unit": "µg/mL"}, {"measurement": "MIC", "setting": "[4]; A. baumannii isolate CDC 307, β-lactamase type OXA, read-out: MIC", "result": 64, "unit": "µg/mL"}, {"measurement": "MIC", "setting": "[4]; A. baumannii isolate CDC 308, β-lactamase type ESBL/OXA, read-out: MIC", "result": 64, "unit": "µg/mL"}, {"measurement": "MIC", "setting": "[4]; A. baumannii isolate CDC 311, β-lactamase type OXA, read-out: MIC", "result": "> 64", "unit": "µg/mL"}, {"measurement": "MIC", "setting": "[4]; A. baumannii isolate CDC 312, β-lactamase type OXA, read-out: MIC", "result": "> 64", "unit": "µg/mL"}, {"measurement": "MIC", "setting": "[4]; A. baumannii isolate CDC 313, β-lactamase type ESBL/OXA, read-out: MIC", "result": "> 64", "unit": "µg/mL"}, {"measurement": "MIC", "setting": "[4]; NCTC13304, A. baumannii isolate NCTC 13304, β-lactamase type OXA, read-out: MIC", "result": "> 64", "unit": "µg/mL"}, {"measurement": "MIC", "setting": "[5]; Escherichia coli, ATCC25922, E. coli ATCC 25922", "result": 0.25, "unit": "µg/mL"}, {"measurement": "MIC", "setting": "[5]; Escherichia coli, ATCC35218, E. coli ATCC 35218", "result": 0.12, "unit": "µg/mL"}, {"measurement": "MIC", "setting": "[5]; Klebsiella pneumoniae, ATCCBAA1705, K. pneumoniae ATCC BAA-1705", "result": "> 64", "unit": "µg/mL"}, {"measurement": "MIC", "setting": "[5]; Pseudomonas aeruginosa, ATCC27853, P. aeruginosa ATCC 27853", "result": 2, "unit": "µg/mL"}]}
{"smiles": "CC(S)C(C)S.[Bi]", "note": "(centres unmarked) [MB-6, bismuth-2,3-butanedithiol]", "values": [{"measurement": "MIC", "setting": "[1]; [6]", "result": 1, "unit": "µg/mL"}, {"measurement": "MIC", "setting": "[1]; E. coli MMX 5755, ESBL", "result": 2, "unit": "µg/mL"}, {"measurement": "MIC", "setting": "[1]; E. coli MMX 5756, ESBL", "result": 1, "unit": "µg/mL"}, {"measurement": "MIC", "setting": "[2]; [7]", "result": 4, "unit": "µg/mL"}, {"measurement": "MIC", "setting": "[2]; K. pneumoniae MMX 9029, ESBL", "result": 2, "unit": "µg/mL"}, {"measurement": "MIC", "setting": "[3]; [8]", "result": 8, "unit": "µg/mL"}, {"measurement": "MIC", "setting": "[4]; A. baumannii isolate CDC 273, β-lactamase type ESBL/OXA", "result": 0.5, "unit": "µg/mL"}, {"measurement": "MIC", "setting": "[4]; A. baumannii isolate CDC 274, β-lactamase type ESBL/OXA", "result": 0.5, "unit": "µg/mL"}, {"measurement": "MIC", "setting": "[4]; A. baumannii isolate CDC 275, β-lactamase type ESBL/OXA", "result": 0.5, "unit": "µg/mL"}, {"measurement": "MIC", "setting": "[4]; A. baumannii isolate CDC 277, β-lactamase type ESBL/OXA", "result": 1, "unit": "µg/mL"}, {"measurement": "MIC", "setting": "[4]; A. baumannii isolate CDC 284, β-lactamase type ESBL/OXA", "result": 1, "unit": "µg/mL"}, {"measurement": "MIC", "setting": "[4]; A. baumannii isolate CDC 307, β-lactamase type OXA", "result": 0.5, "unit": "µg/mL"}, {"measurement": "MIC", "setting": "[4]; A. baumannii isolate CDC 308, β-lactamase type ESBL/OXA", "result": 0.5, "unit": "µg/mL"}, {"measurement": "MIC", "setting": "[4]; A. baumannii isolate CDC 311, β-lactamase type OXA", "result": 0.5, "unit": "µg/mL"}, {"measurement": "MIC", "setting": "[4]; A. baumannii isolate CDC 312, β-lactamase type OXA", "result": 0.5, "unit": "µg/mL"}, {"measurement": "MIC", "setting": "[4]; A. baumannii isolate CDC 313, β-lactamase type ESBL/OXA", "result": 0.5, "unit": "µg/mL"}, {"measurement": "MIC", "setting": "[4]; NCTC13304, A. baumannii isolate NCTC 13304, β-lactamase type OXA", "result": 0.5, "unit": "µg/mL"}]}
